Experimental data taken from publication PMC11148772, “Inhibition of protein translational machinery in triple-negative breast cancer as a promising therapeutic strategy” (Cell Reports Medicine, 2024).
“Also recorded” adds a separate entry of the source.

Tests used:
[1] = Maximum tolerated dose / acute oral toxicity; type: in vivo, mouse; settings: for Body Weight, Mean / Toxicity (death/test): ICR (Female) mice
Protocol: The acute oral toxicity of SU056 was evaluated by Eurofins lab services (Eurofins discovery). The oral toxicity study was performed in female rats and mice for multiple escalating doses (100 mg/kg, 200 mg/kg, 400 mg/kg). Rats and mice were monitored for their behavioral, neurological and autonomic signs after administration of SU056. The response was recorded as 0; no adverse effect, ±1 mild adverse effect, ±2, moderate adverse effect and ±3 severe adverse effect.

[2] = system: MDA-MB-231, MDA-MB-468 and MCF12A cells; assay: Global proteome profiling with pathway enrichment; type: cell-based, human; settings: 1 μM, 12 h, TNBC cells vs vehicle
Protocol: MDA-MB-231, MDA-MB-468, and MCF12A cells were grown to 80% confluence and then treated with DMSO (vehicle control) or SU056 (1 μM) for 12 h. Cells were washed twice with phosphate-buffered saline (PBS), harvested by scaping, and centrifuged. Cells were lysed by vortexing in 100 mM triethylammonium bicarbonate (TEAB, Thermo Fisher Scientific) in 1% sodium dodecyl sulfate (SDS). The lysate was centrifuged, and the supernatant was retained. A bicinchoninic acid assay (BCA, Thermo Scientific, Rockville, IL) was used to measure protein concentration and 50 μg of protein per sample was subjected to disulfide bond reduction using 10 mM TCEP (Sigma Aldrich) for 1 h at 55°C. Cysteine resides were then alkylated with iodoacetamide (Sigma Aldrich) for 30 min at room temperature in the dark. […] All samples were analyzed in triplicate.
Using a Dionex Ultimate Rapid Separation Liquid Chromatography system (Thermo Fisher Scientific), a 3 μL injection of the combined TMT-labeled peptide solution was loaded onto a PepMap 100 C18 trap column (Thermo Fisher Scientific) at a rate of 5 μL/min for 10 min. […] The flow rate was set to 0.6 μL/min throughout the gradient and each sample was analyzed in triplicate. […]
Raw LC-MS/MS data was analyzed using MaxQuant[50] searching against the Swiss-Prot human reference proteome database (20,626 entries as of 2020). […]

SMILES: O=C1OCC2=C1C(c1cccc(F)c1)c1cc3c(cc1N2CCO)OCO3 (centres unmarked) [SU056, 9-(3-fluorophenyl)-5-(2-hydroxyethyl)-6,9-dihydro-[1,3]dioxolo[4,5-g]furo[3,4-b]quinolin-8(5H)-one]
- Body Weight, Mean ([1]; 100 mg/kg, 0 hr): 23.0 gm
- Toxicity (death/test) ([1]; 100 mg/kg, 15 min): 0/3
- Toxicity (death/test) ([1]; 100 mg/kg, 1 hr): 0/3
- Body Weight, Mean ([1]; 100 mg/kg, 24 hr): 23.0 gm
- Toxicity (death/test) ([1]; 100 mg/kg, 24 hr): 0/3
- Body Weight, Mean ([1]; 100 mg/kg, 48 hr): 23.3 gm
- Toxicity (death/test) ([1]; 100 mg/kg, 48 hr): 0/3
- Body Weight, Mean ([1]; 100 mg/kg, 72 hr): 24.3 gm
- Toxicity (death/test) ([1]; 100 mg/kg, 72 hr): 0/3
- Body Weight, Mean ([1]; 200 mg/kg, 0 hr): 23.7 gm
- Toxicity (death/test) ([1]; 200 mg/kg, 15 min): 0/3
- Toxicity (death/test) ([1]; 200 mg/kg, 1 hr): 0/3
- Body Weight, Mean ([1]; 200 mg/kg, 24 hr): 24.0 gm
- Toxicity (death/test) ([1]; 200 mg/kg, 24 hr): 0/3
- Body Weight, Mean ([1]; 200 mg/kg, 48 hr): 24.0 gm
- Toxicity (death/test) ([1]; 200 mg/kg, 48 hr): 0/3
- Body Weight, Mean ([1]; 200 mg/kg, 72 hr): 24.3 gm
- Toxicity (death/test) ([1]; 200 mg/kg, 72 hr): 0/3
- Body Weight, Mean ([1]; 400 mg/kg, 0 hr): 22.7 gm
- Toxicity (death/test) ([1]; 400 mg/kg, 15 min): 0/3
- Toxicity (death/test) ([1]; 400 mg/kg, 1 hr): 0/3
- Body Weight, Mean ([1]; 400 mg/kg, 24 hr): 22.7 gm
- Toxicity (death/test) ([1]; 400 mg/kg, 24 hr): 0/3
- Body Weight, Mean ([1]; 400 mg/kg, 48 hr): 23.3 gm
- Toxicity (death/test) ([1]; 400 mg/kg, 48 hr): 0/3
- Body Weight, Mean ([1]; 400 mg/kg, 72 hr): 24.3 gm
- Toxicity (death/test) ([1]; 400 mg/kg, 72 hr): 0/3
- behavioral, neurological, and anatomical signs of toxicity and morbidity ([1]; mice, 100, 200, and 400 mg/kg oral gavage, 72 h): not affected; also recorded: no observable changes
- protein translation processes (proteomic pathway analysis) [2]: modulated
